{"source": "patent US10322074B2", "about": "“Apparatus and method for preparing cosmeceutical ingredients containing epi-dermal delivery mechanisms” (PPP&C INC., priority 2015, dated 2019)", "assay": "Phase behavior and solubility of lipid in dense CO2 / threshold pressure for precipitation", "format": "physicochemical", "excerpt": "Prior to liposome or niosome formation, the phase behavior and solubility of the chosen lipid in dense CO2 were investigated to verify the suitability of the lipid for dense gas processing and, in particular LPLTVs processing.\nKnowledge of the threshold pressure for precipitation of lipid from solution is also a key factor for design of the LPLTVs process in order to determine the maximum pressure for the technique so that yield is enhanced and loss of lipid in the expansion chamber minimized. The solid state of 1,2 distearoyl-sn-glycero-3-phosphocholine (DSPC) was maintained when the lipid was exposed to CO2 below 350 bar at 50° C. and 150 bar at 70° C. The solubility of DSPC in pure CO2 at 50° C. and pressures up to 280 bar was considered negligible. […] Use of higher pressures or larger amounts of organic solvent are undesirable, thus the results of the solubility study are in agreement with the literature in concluding that effects arising from poor solubility of lipids in dense CO2 are not easily overcome.\nIn prior art, at 50° C. and 250 bar, DSPC required the addition of 4.8% v/v ethanol as well as the use of a recycling system for homogeneous dissolution of the lipid in CO2. In the current embodiment, the use of the LPLTVs process eliminates the current limitations of dense gas techniques associated with solubilizing lipids using a supercritical fluid and simply utilizes a dense gas as an aerosolization aid. The threshold pressure for the precipitation of DSPC from a 10 mg/mL ethanol solution at 22° C. was 55 bar.\nPrecipitation was first observed at 58, 55, and 56 bar for the 5, 10, and 20 mg/mL solutions of DSPC and cholesterol (70:30 lipid to cholesterol weight ratio) in ethanol at 22° C., respectively. Therefore it can be seen that cholesterol had negligible effect on the threshold pressure. […] A faster pressurization rate is preferable for the embodiments LPLTVs process in order to minimize the time requirement for each experiment. During this experiment, noticeable expansion only started to occur after 50 bar was reached. […]", "data": [{"compound": "CCCCCCCCCCCCCCCCCC(=O)OC[C@H](COP(=O)([O-])OCC[N+](C)(C)C)OC(=O)CCCCCCCCCCCCCCCCC", "note": "[DSPC, 1,2 distearoyl-sn-glycero-3-phosphocholine]", "values": [{"measurement": "threshold pressure for precipitation", "setting": "10 mg/mL ethanol solution, 22° C.", "result": 55, "unit": "bar"}, {"measurement": "effect of ethanol co-solvent on solubility in CO2", "setting": "5 mol % ethanol, 50° C., 250 bar", "result": "did not significantly improve"}, {"measurement": "solubility in pure CO2", "setting": "50° C., pressures up to 280 bar", "result": "negligible"}]}]}
